Assay results as given in PubChem BioAssay (NCI).
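Compound exposure: 48 hours, 5 concentrations, 96-well plates. Abbreviation: GI50, concentration required for 50% inhibition of growth. TGI denotes the concentration required for complete inhibition of growth.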

Tested on: MDA-MB-468 breast
Assay: NCI anticancer screen, dose series, 48 h

## OCc1ccc(-c2ccc(-c3ccc(CO)s3)o2)s1
  TGI: 0.023 µM

## CN1CCN(CCCn2c(=O)c3sc4ncccc4c3n3nnc(-c4ccccc4)c23)CC1
  GI50: 6.84 µM
  TGI: 13.9 µM
